Twelve compounds from patent US7759337B2, “Phthalazine compounds and methods of use” (Amgen Inc., priority 2005, dated 2010) can be followed below.

What is called IC50 is the concentration that inhibits the measured activity by half. Higher therefore signals weaker potency.

Where only a bound is given, the exact number is not on record here.

This test deals with production of TNF by monocytes activated with bacterial lipopolysaccharide (LPS). The test is described as follows: Lipopolysaccharide-activated monocyte TNF production assay. Format: cell-based. To be noted: Homo sapiens; whole blood monocyte assay (LPS induced TNF release). The procedure, abridged: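 Adherent human PBMC-derived monocytes preincubated 60 min with nine two-fold compound dilutions, then stimulated with E. coli K532 LPS (30 ng/mL in the added medium) for 4 h at 37 °C. Supernatant TNF measured by sandwich ELISA; IC50 is the compound concentration halving TNF production, from second-order polynomial fits.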
The compound `Cc1ccc(C(=O)NC2CC2)cc1-c1ccc2c(C(N)=O)nncc2c1` [Example 83, 6-{5-[(Cyclopropylamino)carbonyl]-2-methylphenyl}phthalazine-1-carboxamide] gave an IC50 not above 5 µM.
Consider `Cc1ccc(C(N)=O)cc1-c1ccc2c(N3CCOC[C@@H]3C)nncc2c1` [Example 184, 4-methyl-3-{1-[(3S)-3-methylmorpholin-4-yl]phthalazin-6-yl}benzamide], for which the half-inhibitory concentration (IC50) is not above 5 µM.
`COc1ncc(-c2nncc3cc(-c4cc(C(=O)NC5CC5)ccc4C)ccc23)cn1` [Example 264, N-cyclopropyl-3-[1-(2-methoxypyrimidin-5-yl)phthalazin-6-yl]-4-methylbenzamide] yielded an IC50 not above 5 µM.
Consider `CNc1noc2c(-c3ccc4c(-c5ccccc5C)nncc4c3)c(C)ccc12` [Example 396, N,6-dimethyl-7-[1-(2-methylphenyl)phthalazin-6-yl]-1,2-benzisoxazol-3-amine], for which the IC50 was not above 5 µM.
Turning to `Cc1ccc(C(=O)NC2CC2)cc1-c1ccc2c(O)nncc2c1` [Example 288, N-cyclopropyl-3-(1-hydroxyphthalazin-6-yl)-4-methylbenzamide], the IC50 was not above 5 µM.
In turn, `O=C(NC1CC1)c1ccc(Cl)c(-c2ccc3c(N4CCOCC4)nncc3c2)c1` [Example 38, 4-chloro-N-cyclopropyl-3-(1-morpholinophthalazin-6-yl)benzamide] showed an IC50 not above 5 µM.
Consider `Cc1ccc(C(=O)NC2CC2)cc1-c1ccc2c(N[C@H](C)c3ccccc3)nncc2c1` [Example 193, N-cyclopropyl-4-methyl-3-(1-{[(1R)-1-phenylethyl]amino}phthalazin-6-yl)benzamide], for which the IC50 was not above 5 µM.
On to `Cc1ccc(C(=O)NC2CC2)cc1-c1ccc2c(N3C[C@H](C)N(CC(F)(F)F)C[C@H]3C)nncc2c1` [Example 376, N-cyclopropyl-3-{1-[(2R,5S)-2,5-dimethyl-4-(2,2,2-trifluoroethyl)piperazin-1-yl]phthalazin-6-yl}-4-methylbenzamide], for which the half-maximal inhibitory concentration (IC50) was not above 5 µM.
The compound `Cc1cc(C(=O)O)sc1-c1ccc2c(N3CCOCC3)nncc2c1` [Example 47, 4-methyl-5-(1-morpholinophthalazin-6-yl)thiophene-2-carboxylic acid] showed an IC50 not above 5 µM.
Compound `Cc1ccc(C(=O)NC2CC2)cc1-c1ccc2c(N3CCC(=O)CC3)nncc2c1` [Example 58, N-cyclopropyl-4-methyl-3-[1-(4-oxopiperidin-1-yl)phthalazin-6-yl]benzamide] came in with an IC50 not above 5 µM.
In turn, `Cc1ccc(C(=O)NC2CC2)cc1-c1ccc2c(C(C)C)nncc2c1` [Example 13, N-Cyclopropyl-3-(1-isopropylphthalazin-6-yl)-4-methylbenzamide] had an IC50 not above 5 µM.
The compound `CCc1ccccc1-c1nncc2cc(-c3cc(C(=O)NC4CC4)ccc3C)ccc12` [Example 251, N-cyclopropyl-3-[1-(2-ethylphenyl)phthalazin-6-yl]-4-methylbenzamide] yielded an IC50 not above 5 µM.
